The values below are quoted from earlier work in PubChem BioAssay AID1259410 (Chemical Carcinogenesis Research Information System (CCRIS), 2018).

In the data set the test system is rodent tumor promotion studies, tumor incidence. The data set can be described thus: CCRIS tumor promotion studies.

For `Cn1c(N)nc2ncc(-c3ccccc3)cc21`, the outcome was “small intestine: adenocarcinoma” (Carcinogen: 3,2'-DIMETHYL-4-AMINOBIPHENYL, 13394-86-0, Doses [Carcinogen]: 50 MG/KG BW ONCE/2 WK FOR FIRST 20 WK (STUDY DURATION: 60 WK), Doses [Promoter]: 0, 100, 300 PPM IN DIET FOR 40 WK BEGINNING 20 WK POST CARCINOGEN TREATMENT (STUDY DURATION: 60 WK), Doses [Promoter]: 0, 100, 300 PPM IN DIET FOR 40 WK BEGINNING 20 WK POST CARCINOGEN TREATMENT (STUDY DURATION: 60 WK), Route [Carcinogen]: SUBCUTANEOUS, Route [Promoter]: ORAL, Species: RAT, Strain/Sex: F344/MALE); “large intestine: adenomas and adenocarcinoma; only doses of 50 and 200 ppm were” (Carcinogen: AZOXYMETHANE [25843-45-2], Doses [Carcinogen]: 2 DOSES OF 15 MG/KG BW AT 1 WK INTERVALS STARTING AT 6 WKS OF AGE (STUDY DURATION: 36 WKS), Doses [Promoter]: 0, 0.001, 0.01, 0.1, 1, 10, 50, 200 PPM IN DIET FOR 34 WKS STARTING AFTER CARCINOGEN, Doses [Promoter]: 0, 0.001, 0.01, 0.1, 1, 10, 50, 200 PPM IN DIET FOR 34 WKS STARTING AFTER CARCINOGEN, Route [Carcinogen]: SUBCUTANEOUS, Route [Promoter]: ORAL (DIET), Species: RAT, Strain/Sex: F344/MALE); “large intestine: adenocarcinoma” (Carcinogen: DIETHYLNITROSAMINE, 55-18-5, N-METHYL-N-NITROSOUREA, 684-93-5, N-BUTYL-N-(4-HYDROXYBUTYL)NITROSAMINE, 3817-11-6, 1,, Carcinogen: DIETHYLNITROSAMINE, 55-18-5, N-METHYL-N-NITROSOUREA, 684-93-5, N-BUTYL-N-(4-HYDROXYBUTYL)NITROSAMINE, 3817-11-6, 1,, Doses [Carcinogen]: 100 MG/KG BW DEN ONCE, 20 MG/KG BW MNU 4 TIMES, 0.05% BBN IN DRINKING WATER FOR FIRST 2 WK OF STUDY, 40 MG/KG DMH 4 TIME, Doses [Carcinogen]: 100 MG/KG BW DEN ONCE, 20 MG/KG BW MNU 4 TIMES, 0.05% BBN IN DRINKING WATER FOR FIRST 2 WK OF STUDY, 40 MG/KG DMH 4 TIME, Doses [Promoter]: 0, 60 PPM IN DIET FOR 24 WK BEGINNING AT WK 5 OF STUDY (STUDY DURATION: 29 WK), Route [Carcinogen]: INTRAPERITONEAL, INTRAPERITONEAL, ORAL, SUBCUTANEOUS, ORAL, Route [Carcinogen]: INTRAPERITONEAL, INTRAPERITONEAL, ORAL, SUBCUTANEOUS, ORAL, Route [Promoter]: ORAL, Species: RAT, Strain/Sex: F344/MALE); “small intestine: adenocarcinoma; large intestine: adenocarcinoma” (Carcinogen: DIETHYLNITROSAMINE, 55-18-5, N-METHYL-N-NITROSOUREA, 684-93-5, N-BUTYL-N-(4-HYDROXYBUTYL)NITROSAMINE, 3817-11-6, 1,, Carcinogen: DIETHYLNITROSAMINE, 55-18-5, N-METHYL-N-NITROSOUREA, 684-93-5, N-BUTYL-N-(4-HYDROXYBUTYL)NITROSAMINE, 3817-11-6, 1,, Doses [Carcinogen]: 100 MG/KG BW DEN ONCE, 20 MG/KG BW MNU 4 TIMES, 0.05% BBN IN DRINKING WATER FOR FIRST 2 WK OF STUDY, 40 MG/KG DMH 4 TIME, Doses [Carcinogen]: 100 MG/KG BW DEN ONCE, 20 MG/KG BW MNU 4 TIMES, 0.05% BBN IN DRINKING WATER FOR FIRST 2 WK OF STUDY, 40 MG/KG DMH 4 TIME, Doses [Promoter]: 0, 300 PPM IN DIET FOR 24 WK BEGINNING AT WK 5 OF STUDY (STUDY DURATION: 29 WK), Route [Carcinogen]: INTRAPERITONEAL, INTRAPERITONEAL, ORAL, SUBCUTANEOUS, ORAL, Route [Carcinogen]: INTRAPERITONEAL, INTRAPERITONEAL, ORAL, SUBCUTANEOUS, ORAL, Route [Promoter]: ORAL, Species: RAT, Strain/Sex: F344/MALE). On to `C/C(=C\CO)CCC[C@H](C)CCC[C@H](C)CCCC(C)C`, for which the outcome (Carcinogen: 7,12-DIMETHYLBENZ[A]ANTHRACENE, 57-97-6, Doses [Carcinogen]: 100 UG ONCE, Doses [Promoter]: 0, 100 MG 2 D/WK FOR 16 WK BEGINNING 1 WK POST CARCINOGEN DOSE (STUDY DURATION: 41 WK), Route [Carcinogen]: DERMAL, Route [Promoter]: DERMAL, Species: MOUSE, Strain/Sex: ICR/FEMALE) was “skin: tumor”. `CC(CCC(=O)NCCS(=O)(=O)O)[C@H]1CC[C@H]2[C@@H]3CC[C@@H]4C[C@H](O)CC[C@]4(C)[C@H]3C[C@H](O)[C@]12C` (stereo partly specified): the outcome (Doses [Carcinogen]: IR, Route [Carcinogen]: RECTAL, Route [Promoter]: RECTAL, Species: RAT, Strain/Sex: MALE,FEMALE) is recorded as “colon”. Consider `N`, for which the outcome runs as follows: (Carcinogen: N-METHYL-N'-NITRO-N-NITROSOGUANIDINE, 70-25-7, Doses [Carcinogen]: 83 MG/L IN DRINKING WATER FOR 24 WK, Doses [Promoter]: 0, 0.01% IN DRINKING WATER BEGINNING POST LAST CARCINOGEN DOSE AND CONTINUING FOR 24 WK (STUDY DURATION: 48 WK), Route [Carcinogen]: ORAL, Route [Promoter]: ORAL, Species: RAT, Strain/Sex: SPRAGUE-DAWLEY/MALE) “stomach: tumor”; (Carcinogen: N-METHYL-N'-NITRO-N-NITROSOGUANIDINE, 70-25-7, Doses [Carcinogen]: 83 MG/L IN DRINKING WATER FOR 24 WK, Doses [Promoter]: 0, 0.01% IN DRINKING WATER FOR 24 WK BEGINNING POST CARCINOGEN TREATMENT (STUDY DURATION: 48 WK), Route [Carcinogen]: ORAL, Route [Promoter]: ORAL, Species: RAT, Strain/Sex: SPRAGUE-DAWLEY/MALE) “stomach: adenocarcinoma”. On to `CCN(CC)CCCC(C)Nc1c2ccc(Cl)cc2nc2ccc(OC)cc12` (stereo unspecified), for which the outcome by setting is: (Carcinogen: N-NITROBIS(2-OXOPROPYL)AMINE, 60599-38-4, Doses [Carcinogen]: 10 MG/KG BW 1/WK FOR 3 WK, Doses [Promoter]: 0, 100 PPM IN DIET FOR 37 WK BEGINNING POST CARCINOGEN TREATMENT (STUDY DURATION: 40 WK), Route [Carcinogen]: SUBCUTANEOUS, Route [Promoter]: ORAL, Species: HAMSTER, Strain/Sex: SYRIAN/FEMALE) “pancreas: adenocarcinoma; liver: hepatocellular adenoma or carcinoma”; (Carcinogen: N-NITROBIS(2-OXOPROPYL)AMINE, 60599-38-4, Doses [Carcinogen]: 10 MG/KG BW 1/WK FOR 3 WK, Doses [Promoter]: 0, 300 PPM IN DIET FOR 37 WK BEGINNING POST CARCINOGEN TREATMENT (STUDY DURATION: 40 WK), Route [Carcinogen]: SUBCUTANEOUS, Route [Promoter]: ORAL, Species: HAMSTER, Strain/Sex: SYRIAN/FEMALE) “liver: hepatocellular adenoma or carcinoma”.

Take `CCCCCCOc1cc(C)c(O)c(C)c1C`: the outcome reads like this: (Carcinogen: DIETHYLNITROSAMINE, 55-18-5, N-METHYL-N-NITROSOUREA, 684-93-5, N-BUTYL-N-(4-HYDROXYBUTYL)NITROSAMINE, 3817-11-6, DIMETHY, Carcinogen: DIETHYLNITROSAMINE, 55-18-5, N-METHYL-N-NITROSOUREA, 684-93-5, N-BUTYL-N-(4-HYDROXYBUTYL)NITROSAMINE, 3817-11-6, DIMETHY, Doses [Carcinogen]: 100 MG/KG BW DEN ONCE FOLLOWED BY 20 MG/KG BW MNU 4 TIMES AND 0.05% BBN IN DRINKING WATER DURING FIRST 2 WK THEN 40 MG/K, Doses [Promoter]: 0, 1% IN THE DIET FOR 24 WK BEGINNING 1 DAY POST CARCINOGEN TREATMENT (STUDY DURATION: 28 WK), Route [Carcinogen]: INTRAPERITONEAL, INTRAPERITONEAL, ORAL, SUBCUTANEOUS, ORAL, Route [Carcinogen]: INTRAPERITONEAL, INTRAPERITONEAL, ORAL, SUBCUTANEOUS, ORAL, Route [Promoter]: ORAL, Species: RAT, Strain/Sex: F344/MALE) “tongue: papilloma; forestomach: papilloma”; (Carcinogen: ETHYLNITROSOURETHANE, 614-95-9, Doses [Carcinogen]: 0.01% IN DRINKING WATER FOR 4 WK, Doses [Promoter]: 0, 0.25% IN DIET FOR 36 WK BEGINNING POST CARCINOGEN TREATMENT (STUDY DURATION: 40 WK), Route [Carcinogen]: ORAL, Route [Promoter]: ORAL, Species: RAT, Strain/Sex: F344/MALE) “forestomach: papilloma, carcinoma”. For `CC1(OO)C=C(C(C)(C)C)C(=O)C(C(C)(C)C)=C1`, the outcome runs as follows: (Carcinogen: 7,12-DIMETHYLBENZ[A]ANTHRACENE, 57-97-6, Doses [Carcinogen]: 20 NMOL IN 200 µL ACETONE ONCE, Doses [Promoter]: 0, 8 UMOL 2/WK FOR 50 WK BEGINNING 10 D POST CARCINOGEN DOSE (STUDY DURATION: 52 WK), Route [Carcinogen]: DERMAL, Route [Promoter]: DERMAL, Species: MOUSE, Strain/Sex: SENCAR/FEMALE) “skin: papilloma or carcinoma”; (Carcinogen: 7,12-DIMETHYLBENZ[A]ANTHRACENE, 57-97-6, Doses [Carcinogen]: 20 NMOL IN 200 µL ACETONE ONCE, Doses [Promoter]: 0, 20 UMOL 2/WK FOR 50 WK BEGINNING 10 D POST CARCINOGEN DOSE (STUDY DURATION: 52 WK), Route [Carcinogen]: DERMAL, Route [Promoter]: DERMAL, Species: MOUSE, Strain/Sex: SENCAR/FEMALE) “skin: papilloma or carcinoma”.

In the case of `Cc1cc(=O)[nH]c(=S)[nH]1`, the outcome (Carcinogen: 2-(ACETYLAMINO)FLUORINE, Doses [Carcinogen]: IG, Doses [Promoter]: IN DIET, Route [Carcinogen]: GAVAGE, Route [Promoter]: ORAL, Species: RAT, Strain/Sex: MALE,FEMALE) was “thyroid gland”. Regarding `Nc1nc2ncc(CNc3ccc(C(=O)N[C@@H](CCC(=O)O)C(=O)O)cc3)nc2c(=O)[nH]1`, the outcome (Carcinogen: N-ETHYL-N-(2-HYDROXYETHYL)NITROSAMINE, Doses [Carcinogen]: 0.1% IN DRINKING WATER FOR 1 WK, Doses [Promoter]: 300 MG/KG 1/WK FOR 8 WK THEN 100 MG/KG 1/WK FOR 27 WK, Route [Carcinogen]: ORAL, Route [Promoter]: SUBCUTANEOUS, Species: RAT, Strain/Sex: F344/MALE) is recorded as “kidney: renal cell tumor”.
